What all share (format): cell-based
Assay [1] deals with A-498 kidney carcinoma cells. The assay is described as follows: in vitro cytotoxicity assay (MTS), A498. Conditions: Homo sapiens, A498, 72 hours exposure, read-out: IC50 (concentration that inhibits 50% of cell growth). From the text: (§1) To examine the effects of the present composition SF-01 on inhibition of cancer/tumor cells, various human cell lines were used, including one normal cell line and eight cancer/tumor cell lines: • 1. RPTEC (Cambrex): Normal renal proxima tubule epithelial cell, Human • 2. A-498 (ATCC HTB-44): Kidney carcinoma, Human • 3. HCT 116 (ATCC CCL-247): Colorectal carcinoma, Human • 4. Hep 3B (ATCC HB-8064): Hepatocellular carcinoma, Human • 5. LNCap clone FGC (ATCC CRL-1740): Prostate carcinoma, Human • 6. MCF-7 (ATCC HTB-22): Mammary gland adenocarcinoma, Human • 7. MKN45 (FDSC JCRB0245): Stomach carcinoma, Human • 8. NCI-H226 (ATCC CRL-5826): Lung carcinoma, Human • 9. NPC-TW01 (School of Medicine, NTU): Nasal-pharyngeal carcinoma, Human […]
(§2) To evaluate the antitumoral activity of SF-01 towards various human cancer cell lines and measure the potential cytotoxicity of SF-01 towards the primary human renal cell lines (RPTEC), an in vitro cytotoxicity assay was carried out. […] To quantify the metabolically viable cells, the conversion of MTS to formazan was measured by absorbance at 490 nm in a 96-well microtiter plate reader. […] The percentage of cytostasis was calculated by the formula: Cytostasis (%)=[1−(B/A)]×100, where A is the absorbance of the untreated control and B is the absorbance of the treated cell. […]

The subject of assay [2] is HCT 116 colorectal carcinoma cells. As to the kind of experiment: in vitro cytotoxicity assay (MTS), HCT 116. Conditions: Homo sapiens, HCT 116, 72 hours exposure, read-out: IC50 (concentration that inhibits 50% of cell growth).
Source text: as §1, §2

The test system of assay [3] is Hep 3B hepatocellular carcinoma cells. As to the kind of experiment: in vitro cytotoxicity assay (MTS), Hep 3B. Conditions: Homo sapiens, Hep3B, 72 hours exposure, read-out: IC50 (concentration that inhibits 50% of cell growth).
Source text: as §1, §2

Assay [4] has as its system LNCaP clone FGC prostate carcinoma cells. The assay is described as follows: in vitro cytotoxicity assay (MTS), LNCaP clone FGC. The note with it: Homo sapiens, 72 hours exposure, read-out: IC50 (concentration that inhibits 50% of cell growth).
Source text: as §1, §2

Assay [5] relates to MCF-7 mammary gland adenocarcinoma cells. The assay is described as follows: in vitro cytotoxicity assay (MTS), MCF-7. Conditions: Homo sapiens, MCF7, MCF-7, 72 hours exposure, read-out: IC50 (concentration that inhibits 50% of cell growth).
Source text: as §1, §2

Assay [6] has as its system MKN45 stomach carcinoma cells. The assay is described as follows: in vitro cytotoxicity assay (MTS), MKN45. Conditions: Homo sapiens, MKN-45, MKN45, 72 hours exposure, read-out: IC50 (concentration that inhibits 50% of cell growth).
Source text: as §1, §2

In assay [7] the test system is NCI-H226 lung carcinoma cells. The assay is described as follows: in vitro cytotoxicity assay (MTS), NCI-H226. The note with it: Homo sapiens, NCI-H226, 72 hours exposure, read-out: IC50 (concentration that inhibits 50% of cell growth).
Source text: as §1, §2

For assay [8], the system named is NPC-TW01 nasal-pharyngeal carcinoma cells. The assay is described as follows: in vitro cytotoxicity assay (MTS), NPC-TW01. The note with it: Homo sapiens, NPC-TW01, 72 hours exposure, read-out: IC50 (concentration that inhibits 50% of cell growth).
Source text: as §1, §2

For assay [9], the system named is RPTEC normal renal proximal tubule epithelial cells. As to the kind of experiment: in vitro cytotoxicity assay (MTS), normal cell RPTEC. Conditions: Homo sapiens, 72 hours exposure, read-out: IC50 (concentration that inhibits 50% of cell growth).
Source text: as §1, §2

For assay [10], the system named is various human tumor cell lines. As to the kind of experiment: in vitro cytotoxicity assay (MTS), span over the tumor cell lines. The note with it: span over the eight tumor cell lines, 72 hours exposure.
Source text: as §1, §2

As for `COc1cccc2c1C(=O)c1c(O)c3c(c(O)c1C2=O)C[C@@](O)(C(=O)CO)C[C@@H]3O[C@H]1C[C@H](N)[C@H](O)[C@H](C)O1` [Doxorubicin], the IC50 in assay [1] worked out at 782 nM; in assay [2], 33 nM; in [3], 116 nM; in assay [4], 14 nM; in [5], 70 nM; in [6], 58 nM. Moreover, the IC50 in assay [7] was found to be 123 nM; in assay [8], 11 nM; in [9], 3180 nM. Also, in [10], the “IC50 to various human tumor cell lines (span over the lines)” value lay within 800 to 11 nM.

On to `CC(=O)O[C@H]1C(=O)[C@@]2(C)[C@H]([C@H](OC(=O)c3ccccc3)[C@]3(O)C[C@H](OC(=O)[C@H](O)[C@@H](NC(=O)c4ccccc4)c4ccccc4)C(C)=C1C3(C)C)[C@]1(OC(C)=O)CO[C@@H]1C[C@@H]2O` [Taxol], for which the IC50 in assay [1] is 11.1 nM; in [2], less than 0.0256 nM; in [3] it was 0.0256 nM; in assay [4] it was less than 0.0256 nM; in [5] it was less than 0.0256 nM; in [6] it was 0.0256 nM. The IC50 in assay [7] is less than 0.64 nM; in assay [8], less than 0.0256 nM; in assay [9], 406 nM. Also, the “IC50 to various human tumor cell lines (span over the lines)” value in assay [10] is listed as 11 to 0.003 nM.

These data come from patent publication US7527812B2, “Herbal composition for treating cancer” (Sheng Foong Pharmaceutical Co., Ltd., priority 2005, dated 2009).
